Test results: patent US11142505B2, “Compositions for APP-selective BACE inhibition and uses therefor” (The Regents of the University of California, priority 2015, dated 2021)
Where “and” joins values, the source holds several entries; their conditions need not be identical. Identical values can stand only once. Counter-ions that a name gives are not always drawn. Like-named read-outs stand apart in the source and are kept apart here.

Experiments:
[1] = pharmacokinetics, plasma and brain levels; format: in vivo
Excerpt: As is readily apparent, not all compounds were equally able to cross the blood brain barrier, but most compounds did reach pharmacologically meaningful levels given their low IC50 values. FIG. 5A provides a further exemplary compound (FAH65) and FIG. 5B depicts dose response data for Aβ1-42 production in a cell based system.. Further shown are effects observed with regard to Aβ1-42 production, sAPPβ and sAPPα formation. […] Here, data are presented for oral and subcutaneous administration (SQ) at dosages of 10- and 30 mg/kg. […] Once more, it should be noted that these exemplary compounds are preferential towards APP in BACE inhibition as can be taken from the data for Aβ1-42, sAPPβ, and sAPPα formation.

[2] = system: CHO-7W cells that were stably transfected with human APP (wildtype); assay: Secondary cell-based test of APP processing (sAPPalpha, sAPPbeta, Abeta 1-42); settings: for Aβ1-42 peptide formation, in words: FIG. 1C, FIG. 5B; for sAPP (α/β) / sAPPalpha / sAPPbeta / sAPPα/Aβ / Abeta 1-42: Secondary (1st test, n = 3); for sAPP (α/β) / sAPPα/Aβ: ratio; for sAPPbeta / Abeta 1-42: ↓ decrease
Excerpt: Cellular Assays: Numerous cell-based assays can be used to evaluate the activity of agent(s) of interest on relative alpha-secretase activity to beta-secretase activity and/or processing of APP to release amyloidogenic versus non-amyloidogenic oligomers.
Relative activity of the alpha-secretase to the beta-secretase can be measured by analysis of one or more cleavage products of the APP substrate. For example, inhibition of beta-secretase activity against the substrate APP would be expected to decrease release of specific beta-secretase induced APP cleavage products such as Aβ (e.g., Aβ40 or Aβ42), sAPPβ and APPneo. Promotion or enhancement of alpha-secretase activity against the substrate APP would be expected to increase release of specific alpha-secretase induced APP cleavage products such as sAPPα and p3 peptide.
In such assays, for example, the cells expressing APP, alpha-secretase and/or beta-secretase are incubated in a culture medium under conditions suitable for alpha-secretase and/or beta-secretase enzymatic activity at its cleavage site on the APP substrate. On exposure of the cells to the agent(s), the amount of Aβ released into the medium and/or the amount of CTF99 fragments of APP in the cell lysates is reduced as compared with the control. The cleavage products of APP can be analyzed, for example, by immune reactions with specific antibodies, as discussed above.

[3] = solubility (Sol); format: physicochemical; settings: Table 3
[4] = biological target: BACE1 (Homo sapiens (Human), UniProt P56817); assay: in vitro BACE inhibition assay (Primary BACE1 IC50); format: biochemical; settings: for BACE activity / IC50 in the BACE assay, in words: FIG. 1B, FIG. 2B
Excerpt: ABBI Assay: APP Binding BACE Inhibitor (ABBI) activity of any of the compounds described herein can readily be verified using, for example, assays described herein. […] In one illustrative embodiment, an MBP-C125 APP695 wt fusion protein can be used as one of the substrates and the second substrate can be the commercially available P5-P5′ fluorescence substrate.

[5] = Table 4, several values in a cell are repeat determinations, read-out: BACE1 IC50
[6] = one cell spans the readout columns

Chain of BACE1 (P56817 46-501): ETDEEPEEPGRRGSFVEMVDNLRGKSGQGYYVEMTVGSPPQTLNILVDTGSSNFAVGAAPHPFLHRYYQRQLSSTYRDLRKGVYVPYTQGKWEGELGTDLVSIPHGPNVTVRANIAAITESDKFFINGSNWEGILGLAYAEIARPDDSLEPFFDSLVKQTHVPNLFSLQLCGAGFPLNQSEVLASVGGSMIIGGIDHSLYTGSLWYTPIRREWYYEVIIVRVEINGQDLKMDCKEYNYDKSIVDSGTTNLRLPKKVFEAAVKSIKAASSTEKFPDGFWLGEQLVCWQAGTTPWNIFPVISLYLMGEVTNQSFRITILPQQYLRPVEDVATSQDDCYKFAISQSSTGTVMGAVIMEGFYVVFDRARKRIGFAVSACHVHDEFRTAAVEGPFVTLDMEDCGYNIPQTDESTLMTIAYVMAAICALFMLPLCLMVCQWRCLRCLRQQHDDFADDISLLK

Row | Structure (SMILES) | sAPP (α/β) ([2]; ↑ increase) | sAPPalpha ([2]; ↑ increase) | sAPPbeta [2] | sAPPα/Aβ ([2]; ↑ increase) | Abeta 1-42 [2] | further results
1 | Cc1cc(C2(c3cccc(-c4cncnc4)c3)N=C(N)N(C)C2=O)ccc1OC(F)F (racemic) [FAH-65] |  |  |  |  |  | brain levels / crossing the blood brain barrier, in words ([1]; FIG. 4, FIG. 5C (oral and SQ, 10 and 30 mg/kg)): pharmaceutically meaningful concentrations can be achieved in the brain; Aβ1-42 peptide formation, in words [2]: strongly reduces Aβ1-42 production; preference towards APP in BACE inhibition, in words ([2]; from Aβ1-42, sAPPβ and sAPPα formation): clear preference towards APP in BACE inhibition
2 | Cc1cc(C2(c3cnn(C)c3)N=C(N)N(C)C2=O)ccc1OC(F)F (stereo not drawn) [30 HCl] | ↑≈40% | ↑>10% | ↓>20% |  |  | 
3 | Cc1cc(C2(c3cc(F)cc(F)c3)N=C(N)N(C)C2=O)ccc1OC(F)F (stereo not drawn) [FAH-03] | ↑≈50% | ↑>10% | ↓>20% | ↑>50% | ↓>20% | 
4 | Cc1cc(C2(c3cccc(F)c3)N=C(N)N(C)C2=O)ccc1OC(F)F (stereo not drawn) [FAH-17] | ↑>100% | ↑>20% | ↓>30% | ↑>100% | ↓>30% | Cmax brain [1]: ~0.3 µM; Sol [3]: Med
5 | Cc1cc(F)cc(C2(c3ccc(OC(F)F)c(C)c3)N=C(N)N(C)C2=O)c1 (stereo not drawn) [FAH-22] | ↑≈50% | ↑>10% | ↓>20% | ↑>100% | ↓>25% | IC50 [4, 5]: 0.71 µM
6 | Cc1cc(C2(c3cccc(Cl)c3)N=C(N)N(C)C2=O)ccc1OC(F)F (stereo not drawn) [FAH-23] | ↑>50% | ↑>20% | ↓>20% | ↑>100% | ↓>25% | 
7 | Cc1cc(C2(c3cc(F)cc(Cl)c3)N=C(N)N(C)C2=O)ccc1OC(F)F (stereo not drawn) [FAH-25] | ↑≈50% | ↑>10% | ↓>20% | ↑>40% | ↓>20% | 
8 | Cc1cccc(C2(c3ccc(OC(F)F)c(C)c3)N=C(N)N(C)C2=O)c1 (stereo not drawn) [FAH-27] | ↑>100% | ↑>30% | ↓>30% | ↑>100% | ↓>40% | 
9 | Cc1cc(C2(c3cccc(C(F)(F)F)c3)N=C(N)N(C)C2=O)ccc1OC(F)F (stereo not drawn) [FAH-28] | ↑>50% | ↑>20% | ↓>20% | ↑>40% | ↓>20% | 
10 | Cc1cc(C2(c3cccc(-c4cccnc4)c3)N=C(N)N(C)C2=O)ccc1OC(F)F (stereo not drawn) [FAH-32] | ↑>100% | ↑>20% | ↓>30% | ↑>100% | ↓>60% | BACE activity / IC50 in the BACE assay, in words [4]: significantly reduced IC50; Cmax brain [1]: <0.02 µM; Sol [3]: Med; Aβ1-42 peptide formation, in words [2]: substantially reduced; sAPPα formation, in words ([2]; FIG. 1D, compared to FAH17): increased sAPPα formation as compared to FAH17; sAPPβ formation, in words ([2]; FIG. 1D, compared to FAH17): reduced as compared to FAH17
11 | Cc1cc(C2(c3cncnc3)N=C(N)N(C)C2=O)ccc1OC(F)F (stereo not drawn) [FAH-33] | ↑≈10% | ↑>10% | Unchanged | ↑>20% | ↓≈10% | 
12 | Cc1cc(C2(c3cncc(F)c3)N=C(N)N(C)C2=O)ccc1OC(F)F (stereo not drawn) [FAH-37] | ↑>50% | ↑>10% | ↓>20% |  | ↓≈20% | BACE activity / IC50 in the BACE assay, in words [4]: less effective in reducing BACE activity in vitro; IC50 [4, 5]: 1.93 µM and 2.8 µM and 4.7 µM; IC50 ([4]; Tables 1 and 2, read-out: Primary BACE1 IC50): 0.15 µM; Cmax brain [1]: ~0.11 uM μM; Sol [3]: Good; sAPPα/Aβ ([2]; ↓ (decrease)): ↓>40%
13 | Cc1cc(C2(c3cocn3)N=C(N)N(C)C2=O)ccc1OC(F)F (stereo not drawn) [FAH-38] |  |  |  |  |  | Secondary (1st test) result across all readouts [2, 6]: unchanged
14 | Cc1cc(C2(c3cccc(F)c3)N=C(N)N(Cc3ccccc3)C2=O)ccc1OC(F)F (stereo not drawn) [FAH-42] | ↑>50% | ↑>10% | ↓>30% | unchanged | ↓≈10% | 
15 | COCc1cccc(C2(c3ccc(OC(F)F)c(C)c3)N=C(N)N(C)C2=O)c1 (stereo not drawn) [FAH-44] | ↑>100% | ↑>10% | ↓>30% |  | ↓>30% | IC50 ([4]; Table 3, read-out: IC50): ~0.25 µM; Cmax brain [1]: ~0.2 µM; Sol [3]: Excellent; sAPPα/Aβ ([2]; ↓ (decrease)): ↓>100%
16 | Cc1cc(C2(c3ccnc(F)c3)N=C(N)N(C)C2=O)ccc1OC(F)F (stereo not drawn) [FAH-46] | ↑≈10% | ↑>10% | ↓<10% |  | ↓>20% | Cmax brain [1]: ~0.3 µM; Sol [3]: Good; sAPPα/Aβ ([2]; ↓ (decrease)): ↓>40%
17 | Cc1cc(C2(c3ccc(OC(F)F)c(C)c3)N=C(N)N(C)C2=O)ccn1 (stereo not drawn) [FAH-47] | ↑>50% | ↑>10% | ↓>20% |  | ↓≈10% | sAPPα/Aβ ([2]; ↓ (decrease)): ↓>20%
18 | COc1cc(C2(c3ccc(OC(F)F)c(C)c3)N=C(N)N(C)C2=O)ccn1 (stereo not drawn) [FAH-48] | ↑≈50% | ↑>10% | ↓>20% |  | ↓≈10% | sAPPα/Aβ ([2]; ↓ (decrease)): ↓>20%
19 | COCc1cc(C2(c3ccc(OC(F)F)c(C)c3)N=C(N)N(C)C2=O)ccn1 (stereo not drawn) [FAH-53] | ↑≈50% | ↑>10% | ↓<10% |  | ↓<10% | sAPPα/Aβ ([2]; ↓ (decrease)): ↓≈20%
20 | Cc1cc(C2(C3CCCCC3)N=C(N)N(C)C2=O)ccc1OC(F)F (stereo not drawn) [FAH-59] |  |  |  |  |  | Secondary (1st test) toxicity [2, 6]: Toxic
21 | CNCc1cccc(C2(c3ccc(OC(F)F)c(C)c3)N=C(N)N(C)C2=O)c1 (stereo not drawn) [FAH-62] | ↑≈50% | ↑>10% | ↓>20% |  | ↓<10% | Sol [3]: Good; sAPPα/Aβ ([2]; ↓ (decrease)): ↓≈30%
22 | Cc1cc(C2(c3cccc(C4CNC4)c3)N=C(N)N(C)C2=O)ccc1OC(F)CF (stereo not drawn) [FAH-64] |  |  |  |  |  | IC50 [4, 5]: 3.2 µM
23 | Cc1cc(C2(c3cccc(-c4cncc(F)c4)c3)N=C(N)N(C)C2=O)ccc1OC(F)F (stereo not drawn) [FAH-66] |  |  |  |  |  | IC50 [4, 5]: 0.12 µM
24 | Cc1cc(C2(C3CCN(C)CC3)N=C(N)N(C)C2=O)ccc1OC(F)CF (stereo not drawn) [FAH-67] |  |  |  |  |  | IC50 [4, 5]: 24.2 µM
25 | CCCC1CC(C2(C3=CC(C)=C(OC(F)F)C(C)C3)N=C(N)N(C)C2=O)CCN1C (stereo not drawn) [FAH-68] |  |  |  |  |  | IC50 [4, 5]: 16.1 µM
